The source of these data is patent US7429580B2, “Compositions of an anticonvulsant and an antipsychotic drug and methods of using the same for affecting weight loss” (Orexigen Therapeutics, Inc., priority 2004, dated 2008).

The test system of one series is mice. Briefly: Food intake in mice (acute, after fast / intra-peritoneal injection). The format is in vivo. The note with it: for food intake: other preclinical experiments, each compound alone.
The test system of the next series is POMC neurons. Briefly: Electrophysiological activity of POMC neurons in brain slices from POMC-EGFP mice. The format is cell-based. How it is done: The electrophysiological activity of Proopiomelanocortin (POMC) neurons in brain slices from POMC-EGFP mice are recorded. The POMC neurons in these mice are identified by the expression of green fluorescent protein (EGFP) in these, and only these, cells. The frequency of action potentials in these neurons are recorded using standard electrophysiological techniques. In particular loose cell attached patch configuration is used to determine action potential frequency, whilst minimally disturbing the cells.
The electrophysiological activity of Proopiomelanocortin (POMC) neurons in brain slices from POMC-EGFP mice are recorded. The POMC neurons in these mice are identified by the expression of green fluorescent protein (EGFP) in these, and only these, cells. The frequency of action potentials in these neurons are recorded using standard electrophysiological techniques. In particular, loose cell attached patch configuration is used to determine action potential frequency, whilst minimally disturbing the cells.

The nature of series [1]: Rat-weight gain assay: rodent model of mirtazapine-induced weight gain. The format is in vivo, rats. Particulars: addition to concomitant mirtazapine treatment; doses tbd. How it is done:
We have developed a model to pre-clinically test the effects of mirtazapine on body weight gain. […] Initially, a dose of 30 mg/kg of zonisamide (bid) is used, but the dose in the experiment ranges from 20 mg/kg to 90 mg/kg (bid). […] Mirtazapine or setiptiline are used as solutions in minipumps. The concentration of the solution ranges between 0.1 μM to 10 mM. In some experiments, the concentration is calculated to provide a dose of about 1 mg/kg/day. In certain experiments, the concentration is 10 μM.
In a 4×3 design rats receive implants that secrete mirtazapine, or setiptiline, or vehicle. Some rats also receive co-treatment with saline, some receive zonisamide, some receive bupropion, and others receive co-treatment with zonisamide plus bupropion. In this way cohorts of 10 rats receive all possible combinations of the weight loss drug(s) with mirtazapine or setiptiline.
Female Sprague-Dawley rats weighing about 300 grams at the start of the experiment are used. Under isoflurane anesthesia, Alzet osmotic minipumps (2 ml2) are implanted subcutaneously between the shoulder blades. The rats are returned to their home cages after recovery. The minipumps deliver 5 μL per hour for 14 days. A range of doses of mirtazapine (from 0.1 to 20 mg/kg/day dissolved in DMSO/saline) are used. […] Food consumed and animal weights are recorded every 3 days, to minimize disruption of the animals.

A short description of series [2]: Case study Example 13: zonisamide, paroxetine and risperidone. The format is in vivo, human. As for the experimental part:
They were therefore started on zonisamide 100 mg, incraesed to 200 mg. […] The dose was then increased to 300 mg and then to 600 mg.

The nature of series [3]: Case study Example 14: zonisamide, olanzapine, valproate and bupropion. The note with it: for effect on weight gain resulting from olanzapine and valproate: summary of the case. The format is in vivo, human. As for the experimental part: At this point, zonisamide was added to their medication regimen at 100 mg/day and the dose was increased to 200 mg/day after two weeks.

A short description of series [4]: Rodent model of olanzapine-induced weight gain. The format is in vivo, rats. Particulars: addition to concomitant olanzapine treatment (about 1.75 mg/kg/day); doses tbd. How it is done: Rats receive implants that secrete olanzapine (or vehicle in control groups). Some also receive co-treatment with zonisamide; others get co-treatment with zonisamide plus bupropion. Initially, a dose of 30 mg/kg of zonisamide (bid) is used, but the dose in the experiment ranges from 20 mg/kg to 90 mg/kg (bid). […] Olanzapine is used as a solution in minipumps. The concentration of the solution ranges between 0.1 μM to 10 mM. In some experiments, the concentration is calculated to provide a dose of about 1.75 mg/kg/day. In certain experiments, the concentration is 10 μM.
Female Sprague-Dawley rats weighing about 300 grams at the start of the experiment are used. Under isoflurane anesthesia, Alzet osmotic minipumps (2 ml2) are implanted subcutaneously, between the shoulder blades. The rats are returned to their home cages after recovery. The minipumps deliver 5 μL per hour for 14 days. Olanzapine is dissolved in dH2O+10% dilute lactic acid. A pH of about 3.5 enables the olanzapine to dissolve completely and produce a golden solution. This pH level has no effect on the animals in either the drug groups or the vehicle group. The animals are housed individually and are supplied with standard laboratory chow. Food consumed and animal weights are recorded every 3 days, to minimize disruption of the animals.

Series [5] can be described thus: Case study Example 12: zonisamide added to clonazepam, fluoxetine and lamotrogine. The format is in vivo, human. The note with it: person, bipolar disorder; zonisamide 100 mg qD added to clonazepam, fluoxetine, lamotrogine. As for the experimental part:
A person having biopolar disorder, Type I, had been treated for just over year by their psychiatrist using clonazepam 1 mg qHS, fluoxetine 20 mg qd, and lamotrogine 300 mg qD. One particular complaint was that they had “constant thoughts of eating”. Their psychiatrist started them on zonisamide 100 mg qD. […] The dose was continued and despite multiple stressors at home, they continued to do well on the treatment regimen.

The conditions of series [6]: cited from earlier work.
For series [7], the system named is serotonin and dopamine synthesis. Particulars: cited from earlier work.
Another series deals with dopamine D2 receptors (Homo sapiens, UniProt P14416). Particulars: cited from earlier work.
Sequence of dopamine D2 receptors (P14416 whole entry): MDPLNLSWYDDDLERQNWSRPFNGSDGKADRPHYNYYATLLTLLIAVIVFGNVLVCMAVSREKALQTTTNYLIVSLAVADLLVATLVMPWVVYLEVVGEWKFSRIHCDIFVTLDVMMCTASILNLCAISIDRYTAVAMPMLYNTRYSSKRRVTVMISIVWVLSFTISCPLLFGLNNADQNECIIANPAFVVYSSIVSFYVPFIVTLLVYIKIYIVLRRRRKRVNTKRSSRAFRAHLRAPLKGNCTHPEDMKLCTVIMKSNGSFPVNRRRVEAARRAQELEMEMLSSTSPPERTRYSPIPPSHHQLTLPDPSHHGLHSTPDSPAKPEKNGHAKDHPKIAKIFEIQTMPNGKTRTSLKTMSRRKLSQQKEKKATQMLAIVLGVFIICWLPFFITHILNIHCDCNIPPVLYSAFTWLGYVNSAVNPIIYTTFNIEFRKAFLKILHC

Structures are written as SMILES. “Also recorded” adds a separate entry of the source. Read-outs that look alike come from different tables or passages of the source.

Consider `CC(NC(C)(C)C)C(=O)c1cccc(Cl)c1` (stereo not shown) [bupropion], for which, in the series on mice (mice), the “food intake after intra-peritoneal injection” value is listed as “pronounced effects on food intake”. Further, the food intake entry in the series with mice is given as “inhibit food intake”. The “electrophysiological activity of POMC neurons” value with POMC neurons was “increase the electrophysiological activity of POMC neurons”. In addition, in series [1], the “weight gain associated with mirtazapine” value is reported as “decreases the weight gain associated with mirtazapine”. In addition, the weight loss entry in series [2] (trial of bupropion alone, patient on paroxetine and risperidone) was “did not cause significant weight loss”. This compound also gave a weight lost in series [3] (after 6 months, bupropion 150 mg/day added to olanzapine and valproate) of 23.6 lbs. In addition, the adverse effect reported entry in series [3] (bupropion dose raised to 300 mg/day) is reported as “feeling hyperactive”. The “adverse effect limiting higher dose” value in [3] (higher dose (300-400 mg/day) of bupropion) was “precipitation of hypomanic symptoms”. In [3] (over the next 10 months while continuing bupropion), the weight regained turned out to be 10.6 lbs. The “effect on weight gain resulting from olanzapine and valproate” value in series [3] is recorded as “helped in decreasing weight gain”.
As for `NS(=O)(=O)Cc1noc2ccccc12` [zonisamide], in the series on mice (mice), the “food intake after intra-peritoneal injection” value was “pronounced effects on food intake” and the “food intake over 24 hrs after intra-peritoneal injection” value is “pronounced effects on food intake”. For the same compound, in the series with mice, the food intake entry is listed as “inhibit food intake”. For the same compound, in the series on POMC neurons, the “electrophysiological activity of POMC neurons” value was “increase the electrophysiological activity of POMC neurons”. Besides, in series [1], the “weight gain associated with mirtazapine” value is on record as “decreases the weight gain associated with mirtazapine”. In addition, in series [4], the “weight gain associated with olanzapine” value is “decrease the weight gain associated with olanzapine”. For the same compound, in series [5], the craving for food entry is listed as “significantly reduced their craving for food” and the weight gain entry is on record as “prevented weight gain”. Also, the weight lost in [2] (in 3 weeks, zonisamide 100 mg increased to 200 mg) stood at 12 pounds. The “weight relative to baseline” value in [2] (in 5 months, zonisamide increased to 300 mg and then 600 mg) is “their weight returned to baseline”. Also, in series [3] (over the next 4 months, zonisamide 100 then 200 mg/day added to bupropion, olanzapine, valproate), the weight lost is listed as 15 lbs. In addition, the “effect on weight gain resulting from olanzapine and valproate” value in series [3] is recorded as “helped in further offsetting weight gain”. In series [3] (zonisamide 100 then 200 mg/day added to bupropion, olanzapine, valproate), the adverse effects entry is on record as “no adverse effects”. The “weight reducing effects in humans” value in series [6] (Gadde et al, 2003, 2001) is “well demonstrated in humans”. In series [6] (compared with placebo treatment, Gadde et al, JAMA 2003), the “tolerability / side effects” value is “well tolerated; also recorded: fatigue being the only side effect that occurred more frequently than with placebo treatment”. Further, in [6] (patients presenting with primary obesity, Gadde et al, JAMA 2003), the weight loss entry was “significant weight loss”. Also, in series [7], the “serotonin and dopamine synthesis rates” value is “increases serotonin and dopamine synthesis rates”. Further, the “stimulation of dopamine D2 receptors” value on dopamine D2 receptors is recorded as “stimulates dopamine D2 receptors”.
